ChEMBL document CHEMBL1201862, “PubChem BioAssay data set” (2004)
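A five-concentration, 48-hour dose response in 96-well plates underlies each endpoint, interpolated linearly between surrounding concentrations. Abbreviation: GI50, concentration required for 50% inhibition of growth.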 Activity calls are given as the source filed them. Cut-off read from the data, not from the text of the source: active = GI50 up to about 1.1 µM and inactive = higher.

Tests used:
Test in all cases: NCI tumour cell line growth inhibition, 48 h
[1] = tested on: SK-MEL-28
[2] = tested on: SNB-19
[3] = tested on: OVCAR-5
[4] = tested on: LOX IMVI
[5] = tested on: SN12C
[6] = tested on: A549
[7] = tested on: M14
[8] = tested on: HCT-116
[9] = tested on: 786-0
[10] = tested on: SK-MEL-2
[11] = tested on: CAKI-1
[12] = tested on: HCT-15
[13] = tested on: OVCAR-8
[14] = tested on: SF-268
[15] = tested on: IGROV-1
[16] = tested on: NCI-H522
[17] = tested on: HOP-62
[18] = tested on: OVCAR-3
[19] = tested on: HOP-92

Measured: GI50

NN(CC(=O)O)CC(=O)O
inactive: [1] > 100 µM | [2] > 100 µM | [3] > 100 µM | [4] > 100 µM | [5] > 100 µM | [6] > 100 µM | [7] > 100 µM | [8] > 100 µM | [9] > 100 µM | [10] > 100 µM | [11] > 100 µM | [13] > 100 µM | [14] > 100 µM | [15] > 100 µM | [16] > 100 µM | [17] > 100 µM | [18] > 100 µM
> 100 µM: [12]

COc1ccc(OC)c2c(C)ccnc12
inactive: [1] 36.6 µM | [2] 19.9 µM | [3] 46.1 µM | [4] 5.28 µM | [5] 22.1 µM | [6] 21.4 µM | [7] 10.6 µM | [8] 6.31 µM | [9] 22.3 µM | [10] 22.8 µM | [11] 28.9 µM | [13] 14.9 µM | [14] 9.89 µM | [15] 10.7 µM | [16] 4.1 µM | [17] 9.75 µM | [19] 18.6 µM | [18] 2.99 µM
4.25 µM: [12]

O=c1cc(/C=C/c2ccccc2)c2ccc(O/C(=C\c3ccccc3)c3nc4ccccc4c(=O)o3)cc2o1
inactive: [1] 13.8 µM | [2] 26 µM | [3] 44.9 µM | [4] 31.1 µM | [5] 26.3 µM | [6] 30.4 µM | [7] 18.1 µM | [8] 14.2 µM | [9] 44.3 µM | [10] 25.6 µM | [11] 25.7 µM | [13] 28.2 µM | [14] 11.8 µM | [15] 30.1 µM | [17] 28 µM | [19] 15.7 µM | [18] 15 µM
30.3 µM: [12]

CN1C(=O)CC2(C)c3cc(C=O)ccc3N(C)C12 (stereo unspecified)
inactive: [1] > 100 µM | [2] > 100 µM | [3] > 100 µM | [4] > 100 µM | [5] > 100 µM | [6] > 100 µM | [7] > 100 µM | [8] > 100 µM | [9] > 100 µM | [10] > 100 µM | [13] > 100 µM | [14] > 100 µM | [15] > 100 µM | [16] > 100 µM | [17] > 100 µM | [19] > 100 µM | [18] > 100 µM
> 100 µM: [12]

O=C1c2ccccc2C(=O)C2C1C1C(=O)c3ccccc3C(=O)C21 (stereo unspecified)
8.69 µM: [12]
inactive: [1] > 100 µM | [2] > 100 µM | [3] 42.3 µM | [4] 33.3 µM | [5] > 100 µM | [6] > 100 µM | [7] > 100 µM | [9] > 100 µM | [10] > 100 µM | [11] > 100 µM | [13] > 100 µM | [14] 78.2 µM | [15] 79.1 µM | [16] 26.2 µM | [17] > 100 µM | [19] > 100 µM | [18] 40.6 µM

CN1Nc2ccccc2CC1=O
inactive: [1] > 100 µM | [2] > 100 µM | [3] > 100 µM | [4] > 100 µM | [5] > 100 µM | [6] > 100 µM | [7] > 100 µM | [8] > 100 µM | [9] > 100 µM | [10] > 100 µM | [11] > 100 µM | [13] > 100 µM | [14] > 100 µM | [15] > 100 µM | [17] > 100 µM | [19] > 100 µM | [18] > 100 µM
> 100 µM: [12]

Cc1ccc(S(=O)(=O)NNC(=O)c2sc(-c3nc(C)c(C(=O)NNS(=O)(=O)c4ccc(C)cc4)s3)nc2C)cc1
47.1 µM: [12]
inactive: [1] > 100 µM | [2] > 100 µM | [3] > 100 µM | [4] > 100 µM | [5] > 100 µM | [6] > 100 µM | [7] > 100 µM | [8] 84.5 µM | [9] 69.7 µM | [10] > 100 µM | [11] 24 µM | [13] > 100 µM | [14] > 100 µM | [15] > 100 µM | [17] > 100 µM | [19] 31 µM | [18] > 100 µM

Cc1nc2nn(Cc3ccccc3)cc2c(=O)o1
inactive: [2] > 100 µM | [3] > 100 µM | [4] > 100 µM | [5] > 100 µM | [6] > 100 µM | [8] > 100 µM | [9] > 100 µM | [10] > 100 µM | [13] > 100 µM | [14] > 100 µM | [15] > 100 µM | [17] > 100 µM | [18] > 100 µM
> 100 µM: [12]

COC(=O)[C@H](Cc1ccccc1)NC(=O)OCC1OC(n2cc(C)c(=O)[nH]c2=O)CC1N=[N+]=[N-] (stereo partly specified)
> 100 µM: [12]
inactive: [2] > 100 µM | [3] > 100 µM | [4] > 100 µM | [5] > 100 µM | [6] > 100 µM | [7] > 100 µM | [8] > 100 µM | [9] > 100 µM | [10] > 100 µM | [11] > 100 µM | [13] > 100 µM | [14] > 100 µM | [15] > 100 µM | [16] > 100 µM | [17] > 100 µM | [19] > 100 µM | [18] > 100 µM

C[C@]12CC[C@H]3[C@@H](CCC4=CC(=O)CC[C@@]43C)[C@@H]1CC[C@@H]2OC(=O)c1cccc2c(=O)c3ccccc3[nH]c12
37.6 µM: [12]
inactive: [1] > 100 µM | [2] > 100 µM | [3] > 100 µM | [4] 26.9 µM | [5] > 100 µM | [6] > 100 µM | [7] > 100 µM | [9] 20.3 µM | [10] > 100 µM | [13] > 100 µM | [14] 18.2 µM | [15] > 100 µM | [16] > 100 µM | [17] 63.5 µM | [19] 84.5 µM | [18] > 100 µM

C[C@]12CC[C@H](OC3CCCCO3)CC1=CC[C@@H]1C2CC[C@]2(C)/C(=N/O)CCC12 (stereo partly specified)
14.5 µM: [12]
inactive: [1] 21.3 µM | [2] 26.5 µM | [3] 19.4 µM | [4] 13.8 µM | [5] 14.2 µM | [6] 18.5 µM | [7] 21.4 µM | [8] 16.1 µM | [9] 20.4 µM | [10] 36.8 µM | [11] 40.6 µM | [13] 19.2 µM | [15] > 100 µM | [16] 16.9 µM | [17] > 100 µM | [19] 23.9 µM | [18] 17 µM

O=C(N/N=C/c1ccccc1O)N/N=C/c1ccccc1O
inactive: [1] > 100 µM | [2] > 100 µM | [3] > 100 µM | [4] > 100 µM | [5] > 100 µM | [6] > 100 µM | [7] > 100 µM | [8] > 100 µM | [9] > 100 µM | [10] > 100 µM | [13] > 100 µM | [14] > 100 µM | [15] > 100 µM | [16] > 100 µM | [17] > 100 µM | [19] > 100 µM | [18] > 100 µM
> 100 µM: [12]

OC12c3ccccc3C3CCC4(OCCO4)C3C1c1ccccc12 (stereo unspecified)
> 100 µM: [12]
inactive: [1] > 100 µM | [2] > 100 µM | [3] > 100 µM | [4] > 100 µM | [5] > 100 µM | [6] > 100 µM | [7] > 100 µM | [8] > 100 µM | [9] > 100 µM | [10] > 100 µM | [11] > 100 µM | [13] > 100 µM | [14] > 100 µM | [15] 61.8 µM | [16] 65 µM | [17] > 100 µM | [18] > 100 µM

O=C(OCc1ccccc1[N+](=O)[O-])N1c2ccccc2[C@@]23O[C@]24CCC[C@H]3C#C/C=C\C#C[C@H]14
inactive: [1] 44.1 µM | [2] > 100 µM | [3] 66.7 µM | [4] 6.73 µM | [5] 13.7 µM | [6] 4.02 µM | [7] > 100 µM | [8] 41.5 µM | [9] 15.7 µM | [10] > 100 µM | [11] 7.36 µM | [13] 49 µM | [14] 75 µM | [15] > 100 µM | [16] 78 µM | [19] 25.6 µM | [18] > 100 µM
17 µM: [12]

COC1OCC(O)C(NC(=O)N(C)N=O)C1O (stereo unspecified)
> 100 µM: [12]
inactive: [1] > 100 µM | [2] > 100 µM | [3] > 100 µM | [4] > 100 µM | [5] > 100 µM | [6] > 100 µM | [8] > 100 µM | [10] > 100 µM | [11] > 100 µM | [13] > 100 µM | [14] > 100 µM | [15] > 100 µM | [16] > 100 µM | [17] > 100 µM | [19] > 100 µM | [18] > 100 µM

O=c1[nH]c2c(O)cccc2c2cc3c(c(O)c12)OCO3 [NARCIPRIMINE]
inactive: [2] 13.6 µM | [4] 11 µM | [5] 20.7 µM | [6] 25.5 µM | [7] 20.4 µM | [8] 13.8 µM | [9] 25.5 µM | [11] 20.9 µM | [13] 23.6 µM | [14] 23.2 µM | [15] 26.1 µM | [16] 19.3 µM | [17] 19.2 µM | [19] 13.4 µM | [18] 21.5 µM
22.5 µM: [12]
